Test results taken from US20240358671A1, “COMPOSITIONS AND METHODS TO TREAT SKIN DISORDERS” (THE TRUSTEES OF INDIANA UNIVERSITY, priority 2021, published 2024).
“Also recorded” adds a separate entry of the source.

What was measured:
DNMT3B = DNMT3B activity assay; format: cell-based; conditions: human keratinocytes; 5 μmol S-1-P, 48 h
Procedure: Human keratinocytes cells were treated with 5 μmol of Sphingosine-1-phosphate (Avanti) for 48 h. Cells were collected and DNMT3B activity was measured using EpiQuik DNMT3B Activity/Inhibitor Screening Assay Core Kit (EPIGENTEK) according to manufacturer's instructions and using recombinant DNMT3B protein, (ACTIVE MOTIF) as a positive control for the assay.

DNA methyl transferases = assay: DNA methyl transferase expression in S-1-P treated HK; format: cell-based, human
From the text: (§1) FIGS. 11A-11O illustrate additional experimental results. FIG. 11A: Vector map of PPARδ promoter luciferase reporter. FIGS. 11B-11C: PPARδ drives CerS3 expression. CerS3 expression in human keratinocytes (HK) treated with PPARδ agonist (GW501516, 1 μmol/ml) or antagonist (GSK0660, 1 μmol/ml) as measured by qPCR. Data presented as mean±SEM (n=5). FIGS. 11D-11F: Upregulation of DNA methyl transferases in S-1-P treated HK. Data presented as mean±SEM (n=8). FIGS. 11G-11J: Induction of histone deacetylases in S-1P treated HK. Data presented as mean±SEM (n=8). FIGS. 11K-11N) Other histone deacetylases in S-1P treated HK. […] Data presented as mean±SEM, (n=8). FIG. 11O: miR-106b expression in HK treated with S-1-P (5 μmol/ml). Data presented as mean±SEM (n=8).

PPARδ = PPARδ gene expression in S-1-P treated human keratinocytes; format: cell-based; conditions: human keratinocytes treated with S-1-P, standard culture conditions
Procedure: Spingosine-1-phosphate methylates PPARδ promoter. Cutaneous ceramide is degraded to sphingosine by bacterial ceramidase. Sphingosine is phosphorylated to sphingosine-1 phosphate (S-1-P) which is a bioactive lipid and can epigenetically downregulate gene regulation. Thus, a plausible role of S-1-P in regulating PPARδ in our experimental systems was tested. In the porcine pre-clinical model of wound biofilm infection elevated levels of S-1-P was detected following PAwt, but not PAΔCer, infection. […] Under standard culture conditions when human keratinocytes were treated with the bioactive sphingolipid S-1-P, gene expression of PPARδ was blunted. To determine whether such downregulation of PPARδ was epigenetically regulated, CpG methylation of the PPARδ promoter was studied.

miR-106b = miR-106b expression in HK treated with S-1-P; format: cell-based, human; conditions: HK treated with S-1-P 5 μmol/ml
From the text: as §1

histone deacetylases = assay: Histone deacetylase expression in S-1-P treated HK; format: cell-based, human
From the text: as §1

PPARδ promoter = assay: Bisulfite sequencing of PPARδ promoter (CpG methylation); format: cell-based, human; conditions: HaCaT keratinocytes; S-1-P 5 μM, 48 hours
Procedure: The PCR products were gel extracted (GenElute Gel Extraction Kit, Sigma, cat #NA1111-1KT) and Sanger sequencing was done using ABI 3730 Genetic Analyzer. Analysis was done using Sequencher 5.4.5 (Gene Codes Corporation, MI). Results were confirmed by cloning the purified DNA into pGEM-T Easy Vector System II (Promega, cat #A1380), followed by sequencing.
Bisulfite conversion of DNA from HaCaT keratinocytes were transfected with Sphingosine-1-phosphate (5 μM, 48 hours) was performed using the Cells-to-CpG Bisulfite Conversion Kit (Thermo Fisher Scientific, part number: 4445555), as per manufacturer's protocol. The cells were lysed, and DNA was denatured using the denaturation reagent in a PCR tube at 50° C. for 10 min. Unmethylated cytosines were converted to uracil in the denatured DNA samples via treatment with conversion buffer containing bisulfite in a PCR reaction under following conditions: (1) 65° C. for 30 min, (2) 95° C. for 1.5 min, (3) 65° C. for 30 min, (4) 95° C. for 1.5 min, (5) 65° C. for 30 min, and (6) 4° C. up to 4 hr. This was followed by the removal of salts and desulfonation of the converted DNA in a binding column, a series of washing steps, and then elution of DNA. The converted DNA was stored at […] until further used.

## CCCCCCCCCCCCC/C=C/[C@@H](O)[C@@H](N)COP(=O)(O)O [S-1-P, sphingosine-1 phosphate]
DNMT3B
  catalytic activity of DNA methyl transferase 3B (DNMT3B): augmented catalytic activity
DNA methyl transferases
  DNA methyl transferases expression (FIGS. 11D-11F): Upregulation
PPARδ
  gene expression of PPARδ: blunted; also recorded: epigenetically silenced
miR-106b
  miR-106b expression: Induction
Histone deacetylases
  histone deacetylases expression (FIGS. 11G-11J): Induction
  other histone deacetylases expression (FIGS. 11K-11N): No significant changes
PPARδ promoter
  PPARδ promoter methylation: caused promoter methylation
